Reference: the NIST ThermoML archive (doi:10.1021/je0501843)
Where “and” joins values, the source holds several entries; their conditions need not be identical. Equal values may be shown once.

Assay: molar heat capacity at constant volume
Conditions: Fluid (supercritical or subcritical phases), Vacuum adiabatic calorimetry

FC(F)C(F)(F)F [pentafluoroethane]
Conditions | molar heat capacity at constant volume
306 K, Mass density=1202.8 kg/m3 | 102.77 J/K/mol
307 K, Mass density=1202.7 kg/m3 | 103.99 J/K/mol
308 K, Mass density=1202.5 kg/m3 | 103.96 J/K/mol
309 K, Mass density=1202.4 kg/m3 | 102.49 J/K/mol
310 K, Mass density=1202.3 kg/m3 | 101.48 J/K/mol
311 K, Mass density=1202.1 kg/m3 | 102.64 J/K/mol
312 K, Mass density=1202 kg/m3 | 103.21 J/K/mol
313 K, Mass density=1201.9 kg/m3 | 102.64 J/K/mol
314 K, Mass density=1201.7 kg/m3 | 103.24 J/K/mol
315 K, Mass density=1201.6 kg/m3 | 102.92 J/K/mol
316 K, Mass density=1201.5 kg/m3 | 103.09 J/K/mol
317 K, Mass density=1201.4 kg/m3 | 102.73 J/K/mol
318 K, Mass density=1201.2 kg/m3 | 102.19 J/K/mol
319 K, Mass density=1201.1 kg/m3 | 102.74 J/K/mol
320 K, Mass density=1201 kg/m3 | 102.92 J/K/mol
321 K, Mass density=1200.8 kg/m3 | 102.75 J/K/mol and 102.7 J/K/mol
322 K, Mass density=1079.2 kg/m3 | 106.18 J/K/mol and 102.47 J/K/mol
322 K, Mass density=1200.7 kg/m3 | 102.47 J/K/mol and 101.89 J/K/mol
323 K, Mass density=1079.1 kg/m3 | 105.94 J/K/mol and 104.02 J/K/mol
323 K, Mass density=1200.6 kg/m3 | 102.89 J/K/mol and 102.1 J/K/mol
324 K, Mass density=1079 kg/m3 | 105.71 J/K/mol and 105.31 J/K/mol
324 K, Mass density=1200.5 kg/m3 | 102.77 J/K/mol and 102.45 J/K/mol
325 K, Mass density=1078.9 kg/m3 | 104.71 J/K/mol and 104.09 J/K/mol
325 K, Mass density=1200.3 kg/m3 | 102.83 J/K/mol and 102.31 J/K/mol
326 K, Mass density=1078.8 kg/m3 | 103.25 J/K/mol and 103.34 J/K/mol
326 K, Mass density=1200.2 kg/m3 | 102.63 J/K/mol and 102.1 J/K/mol
327 K, Mass density=1078.7 kg/m3 | 104.31 J/K/mol
327 K, Mass density=1200.1 kg/m3 | 102.65 J/K/mol and 102.35 J/K/mol
328 K, Mass density=1078.6 kg/m3 | 105.03 J/K/mol and 104.85 J/K/mol
328 K, Mass density=1199.9 kg/m3 | 102.89 J/K/mol
328 K, Mass density=1200 kg/m3 | 103.64 J/K/mol
329 K, Mass density=1078.5 kg/m3 | 104.79 J/K/mol and 104.41 J/K/mol
329 K, Mass density=1199.8 kg/m3 | 102.81 J/K/mol and 102.69 J/K/mol
330 K, Mass density=1078.4 kg/m3 | 105.01 J/K/mol and 104.07 J/K/mol
330 K, Mass density=1199.7 kg/m3 | 103.09 J/K/mol
331 K, Mass density=1078.3 kg/m3 | 104.36 J/K/mol and 104.2 J/K/mol
331 K, Mass density=1199.6 kg/m3 | 102.64 J/K/mol
332 K, Mass density=976.3 kg/m3 | 110.56 J/K/mol and 112.17 J/K/mol
332 K, Mass density=1078.2 kg/m3 | 104.98 J/K/mol and 105.47 J/K/mol
332 K, Mass density=1199.4 kg/m3 | 103.45 J/K/mol
333 K, Mass density=976.2 kg/m3 | 107.88 J/K/mol and 109.12 J/K/mol
333 K, Mass density=1078.1 kg/m3 | 105.77 J/K/mol and 104.87 J/K/mol
333 K, Mass density=1199.3 kg/m3 | 103.83 J/K/mol
334 K, Mass density=976.2 kg/m3 | 105.25 J/K/mol and 107.12 J/K/mol
334 K, Mass density=1078 kg/m3 | 104.98 J/K/mol and 103.53 J/K/mol
334 K, Mass density=1199.2 kg/m3 | 103.39 J/K/mol
335 K, Mass density=976.1 kg/m3 | 106.11 J/K/mol and 106.99 J/K/mol
335 K, Mass density=1077.9 kg/m3 | 104.43 J/K/mol and 103.57 J/K/mol
335 K, Mass density=1199.1 kg/m3 | 102.85 J/K/mol
336 K, Mass density=976 kg/m3 | 107.32 J/K/mol and 107.23 J/K/mol
336 K, Mass density=1077.8 kg/m3 | 104.74 J/K/mol and 104.05 J/K/mol
336 K, Mass density=1198.9 kg/m3 | 102.26 J/K/mol
337 K, Mass density=975.9 kg/m3 | 107.6 J/K/mol and 108.43 J/K/mol
337 K, Mass density=1077.7 kg/m3 | 105.57 J/K/mol and 105.69 J/K/mol
337 K, Mass density=1198.8 kg/m3 | 103.71 J/K/mol
338 K, Mass density=975.9 kg/m3 | 107.08 J/K/mol and 107.59 J/K/mol
338 K, Mass density=1077.6 kg/m3 | 104.15 J/K/mol and 105.09 J/K/mol
338 K, Mass density=1198.7 kg/m3 | 104.23 J/K/mol
339 K, Mass density=883.4 kg/m3 | 114.19 J/K/mol
339 K, Mass density=975.8 kg/m3 | 106.21 J/K/mol and 106.6 J/K/mol
339 K, Mass density=1077.5 kg/m3 | 103.97 J/K/mol and 103.59 J/K/mol
339 K, Mass density=1198.5 kg/m3 | 104 J/K/mol
340 K, Mass density=883.3 kg/m3 | 112.9 J/K/mol
340 K, Mass density=975.7 kg/m3 | 106.54 J/K/mol and 107.42 J/K/mol
340 K, Mass density=1077.4 kg/m3 | 104.49 J/K/mol and 105.35 J/K/mol
341 K, Mass density=883.3 kg/m3 | 112.1 J/K/mol
341 K, Mass density=975.6 kg/m3 | 107.88 J/K/mol and 107.61 J/K/mol
341 K, Mass density=1077.3 kg/m3 | 105.62 J/K/mol and 105.16 J/K/mol
342 K, Mass density=883.2 kg/m3 | 111.03 J/K/mol
342 K, Mass density=975.6 kg/m3 | 107 J/K/mol
342 K, Mass density=1077.2 kg/m3 | 104.92 J/K/mol and 104.79 J/K/mol
343 K, Mass density=502.9 kg/m3 | 134.81 J/K/mol
343 K, Mass density=883.1 kg/m3 | 110.42 J/K/mol
343 K, Mass density=975.5 kg/m3 | 106.86 J/K/mol
343 K, Mass density=1077.1 kg/m3 | 104.17 J/K/mol and 104.84 J/K/mol
344 K, Mass density=502.9 kg/m3 | 132.16 J/K/mol
344 K, Mass density=585.8 kg/m3 | 125.97 J/K/mol
344 K, Mass density=883.1 kg/m3 | 111.3 J/K/mol
344 K, Mass density=975.4 kg/m3 | 106.41 J/K/mol
344 K, Mass density=1077 kg/m3 | 104.75 J/K/mol and 104.6 J/K/mol
345 K, Mass density=502.9 kg/m3 | 126.98 J/K/mol
345 K, Mass density=585.7 kg/m3 | 123.95 J/K/mol
345 K, Mass density=585.8 kg/m3 | 131.35 J/K/mol
345 K, Mass density=688.7 kg/m3 | 126.83 J/K/mol
345 K, Mass density=883 kg/m3 | 111.02 J/K/mol
345 K, Mass density=975.3 kg/m3 | 107.26 J/K/mol
345 K, Mass density=1076.9 kg/m3 | 105.11 J/K/mol and 104.72 J/K/mol
346 K, Mass density=403.2 kg/m3 | 120.08 J/K/mol
346 K, Mass density=502.9 kg/m3 | 120.15 J/K/mol
346 K, Mass density=585.7 kg/m3 | 120.32 J/K/mol
346 K, Mass density=585.8 kg/m3 | 127.65 J/K/mol
346 K, Mass density=688.7 kg/m3 | 123.21 J/K/mol
346 K, Mass density=774.1 kg/m3 | 115.2 J/K/mol
346 K, Mass density=883 kg/m3 | 110.89 J/K/mol
346 K, Mass density=975.3 kg/m3 | 107.47 J/K/mol and 107.62 J/K/mol
346 K, Mass density=1076.8 kg/m3 | 105.53 J/K/mol and 105.08 J/K/mol
347 K, Mass density=403.2 kg/m3 | 117.75 J/K/mol
347 K, Mass density=503 kg/m3 | 115.93 J/K/mol
347 K, Mass density=585.7 kg/m3 | 117.72 J/K/mol
347 K, Mass density=585.8 kg/m3 | 123.89 J/K/mol
347 K, Mass density=688.7 kg/m3 | 119.23 J/K/mol
347 K, Mass density=774.1 kg/m3 | 114.9 J/K/mol
347 K, Mass density=882.9 kg/m3 | 110.19 J/K/mol
347 K, Mass density=975.2 kg/m3 | 105.52 J/K/mol and 107.28 J/K/mol
347 K, Mass density=1076.7 kg/m3 | 105.04 J/K/mol and 104.54 J/K/mol
348 K, Mass density=403.3 kg/m3 | 116.59 J/K/mol
348 K, Mass density=503 kg/m3 | 118.49 J/K/mol
348 K, Mass density=585.7 kg/m3 | 124.85 J/K/mol and 118.08 J/K/mol
348 K, Mass density=688.7 kg/m3 | 117.7 J/K/mol
348 K, Mass density=774 kg/m3 | 114.62 J/K/mol
348 K, Mass density=882.8 kg/m3 | 109.75 J/K/mol
348 K, Mass density=975.1 kg/m3 | 106.21 J/K/mol and 107.41 J/K/mol
348 K, Mass density=1076.6 kg/m3 | 104.59 J/K/mol and 104.74 J/K/mol
349 K, Mass density=403.3 kg/m3 | 115.69 J/K/mol
349 K, Mass density=503 kg/m3 | 119.76 J/K/mol
349 K, Mass density=585.7 kg/m3 | 123.44 J/K/mol and 117.14 J/K/mol
349 K, Mass density=688.6 kg/m3 | 119.03 J/K/mol
349 K, Mass density=774 kg/m3 | 115.4 J/K/mol
349 K, Mass density=882.8 kg/m3 | 110.59 J/K/mol
349 K, Mass density=975 kg/m3 | 107.41 J/K/mol and 108.49 J/K/mol
349 K, Mass density=1076.6 kg/m3 | 105.38 J/K/mol and 105.95 J/K/mol
350 K, Mass density=403.4 kg/m3 | 113.67 J/K/mol
350 K, Mass density=503 kg/m3 | 116.82 J/K/mol
